# System: human prostate
# Assay: Contractile responses of human prostate
# Details: antagonist affinity estimate against (−)-noradrenaline contractions of human prostatic tissue strips; single antagonist concentration, incubated 2 hours
# Protocol: Contractile Responses of Human Prostate
# Prostatic tissue was cut into longitudinal strips (approximately 3×2×10 mm) and suspended in organ baths under a resting tension of 1 g in Krebs Ringer bicarbonate of the following composition (mM): NaCl (119), KCl (4.7), CaCl2 (2.5), KH2PO4 (1.2), MgSO4 (1.2), NaHCO3 (25), glucose (11), and gassed with 95% O2/5% CO2. The solution also contained 10 mM cocaine and 10 mM corticosterone. Tissues were exposed to a sensitising dose of (−)-noradrenaline ([…]) and washed over a 45 minute period. Isometric contractions were obtained in response to cumulative additions of (−)-noradrenaline to obtain control curves in all tissues. A further curve was then generated in the presence or absence of antagonist (incubated for 2 hours). Antagonist affinity estimates (pA2) were determined using a single concentration of competing antagonist, pA2=−log [A]/(DR-1) where the dose ratio (DR), relative to corresponding controls, was produced by a single concentration of antagonist [A], assuming competitive antagonism and Schild regression close to unity.
structure (smiles),measurement,value
"COc1cc2nc(N3CCCN(C(=O)N4C[C@H](O)[C@@H](O)C4)CC3)nc(N)c2c(-c2ccccc2)c1OC.Cl [Example 17, 4-Amino-6,7-dimethoxy-2-{4-[1-(3S,4S-dihydroxypyrrolidine)carbonyl]-1,4-diazepan-1-yl}-5-phenylquinazoline hydrochloride]",pA2 value,8.5
